Laboratory results from article PMC9508196 (Scientific Reports, 2022).
≈ marks a conversion by molar mass, not a printed value. Read-outs that look alike come from different tables or passages of the source.

Key:
[1] = system: A. baumannii isolate C-8.1-2; test: Disk diffusion test (CLSI), antibiotic susceptibility profile; type: cell-based, Acinetobacter baumannii; details: CLSI breakpoints
Procedure: (§1) ^aAntibiotic susceptibility profile of all isolated strains was evaluated by disk diffusion test, using the standard protocol guide of the Clinical and Laboratory Standards Institute (CLSI), and interpreted as S: Susceptible to standard dosing regimen; I: Intermediate; R: Resistant (in accordance with the criteria of CLST breakpoints).

[2] = system: A. baumannii isolate D-10.1-2; test: as above; type: cell-based, Acinetobacter baumannii; details: CLSI breakpoints
Procedure: as §1

[3] = system: A. baumannii isolate D-10.1-1; test: as above; type: cell-based, Acinetobacter baumannii; details: CLSI breakpoints
Procedure: as §1

[4] = system: A. baumannii isolate B-8.1-2; test: as above; type: cell-based, Acinetobacter baumannii; details: CLSI breakpoints
Procedure: as §1

[5] = system: A. baumannii isolate B-8.2-2; test: as above; type: cell-based, Acinetobacter baumannii; details: CLSI breakpoints
Procedure: as §1

[6] = system: A. baumannii isolate A-8.2-1; test: as above; type: cell-based, Acinetobacter baumannii; details: CLSI breakpoints
Procedure: as §1

[7] = system: A. baumannii isolate C-8.2-1; test: as above; type: cell-based, Acinetobacter baumannii; details: CLSI breakpoints
Procedure: as §1

[8] = system: A. baumannii isolate B-8.1-1; test: as above; type: cell-based, Acinetobacter baumannii; details: CLSI breakpoints
Procedure: as §1

[9] = system: A. baumannii C-8.1–2 (MDR); test: microbe, parasite or virus in culture; type: cell-based, Acinetobacter baumannii
From the text: (§2) Ten strains of both Gram-positive and -negative bacteria, including Staphylococcus aureus ATCC 25,923, S. epidermidis ATCC 12,228, Bacillus cereus ATCC 11,778, Listeria monocytogenes 10403S, Salmonella typhimurium ATCC 13,311, Pseudomonas aeruginosa ATCC 27,853, Shigella sonnei ATCC 11,060, A. baumannii ATCC 19,606, Escherichia coli ATCC 25,922 and E. coli O157:H7, were used in this study. Eight clinical isolates of multidrug-resistant (MDR) and extensively drug-resistant (XDR) A. baumannii, isolated from human (blood, sputum, respiratory sample, sterile site sample and urine), were kindly provided by Asst. Prof. Dr. Sakawrat Kanthawong (Faculty of Medicine, Khon Kaen University, Thailand) (Table S1). All bacterial strains, excluding L. monocytogenes 10403S and E. coli, were cultured in tryptic soy broth (TSB). L. monocytogenes was grown in TSB supplemented with 0.6% yeast extract (TSB-YE), and E. coli was cultured in Luria broth (LB). All of bacteria were cultured at 37 °C with continuous shaking at 220 rpm.
(§3) Minimum inhibitory concentration (MIC) of peptides and antibiotics was assessed by a modified version of the broth microdilution method from the Clinical and Laboratory Standards Institute (CLSI) as previously described. In brief, mid-log phase growths of microbial strains were cultured in Müeller-Hinton broth (MHB) with an initial inoculum of 2–8 × 10^5 CFU/mL. Bacteria suspensions were incubated in sterile 96-well plates with test agents at desired concentrations. […] Minimum bactericidal concentration (MBC) determination was performed using a modified version of the colony count assay. In brief, fifty µl of all non-turbid wells from MIC experiments were spread on agar plates. The MBC value was defined as the lowest concentration of peptides with no colony growth on the plate. All assays were performed in triplicate.

A. baumannii ATCC 19,606 [10] = test: microbe, parasite or virus in culture; type: cell-based, Acinetobacter baumannii
From the text: as §2, §3

[11] = system: A. baumannii C-8.2–1 (XDR); test: microbe, parasite or virus in culture; type: cell-based, Acinetobacter baumannii
From the text: as §2, §3

[12] = system: A. baumannii A-8.2–1 (XDR); test: microbe, parasite or virus in culture; type: cell-based, Acinetobacter baumannii
From the text: as §2, §3

[13] = system: A. baumannii B-8.2–2 (XDR); test: microbe, parasite or virus in culture; type: cell-based, Acinetobacter baumannii
From the text: as §2, §3

[14] = system: A. baumannii B-8.1–2 (MDR); test: microbe, parasite or virus in culture; type: cell-based, Acinetobacter baumannii
From the text: as §2, §3

[15] = system: A. baumannii B-8.1–1 (MDR); test: microbe, parasite or virus in culture; type: cell-based, Acinetobacter baumannii
From the text: as §2, §3

A. baumannii ATCC 19,606 [16] = test: microbe, parasite or virus in culture; details: for fold increase of MIC: serial passages at half-MIC
Procedure: A. baumannii ATCC 19,606 was adjusted to approximately 10^6 CFU/ml in MHB. […] After 24 h incubation, bacterial suspensions of the wells at half-MIC concentration of tested agent were taken and washed 2 times with MHB to prepare the next initial-passage of bacteria. Twenty repeat passages were performed for each tested compound. Along with the test, a negative control was included: the MIC value of bacteria cultured in MHB-deionized water after 20 passages.

[17] = system: A. baumannii D-10.1–1 (MDR); type: cell-based, Acinetobacter baumannii; details: clinical isolate D-10.1–1 (MDR), urine
From the text: as §2, §3

[18] = system: A. baumannii D-10.1–2 (MDR); type: cell-based, Acinetobacter baumannii; details: clinical isolate D-10.1–2 (MDR), urine
From the text: as §2, §3

[19] = Acinetobacter baumannii, ATCC19
[20] = Acinetobacter baumannii, ATCC19, 24 h
[21] = clinical isolate C-8.1–2 (MDR), sterile site
[22] = clinical isolate C-8.2–1 (XDR), sterile site
[23] = clinical isolate A-8.2–1 (XDR), blood
[24] = clinical isolate B-8.2–2 (XDR), respiratory tract
[25] = clinical isolate B-8.1–2 (MDR), respiratory tract
[26] = clinical isolate B-8.1–1 (MDR), respiratory tract

Row | Compound | Antibiotic susceptibility profile [1] | Antibiotic susceptibility profile [2] | Antibiotic susceptibility profile [3] | Antibiotic susceptibility profile [4] | Antibiotic susceptibility profile [5] | Antibiotic susceptibility profile [6] | Antibiotic susceptibility profile [7] | Antibiotic susceptibility profile [8] | MBC ([9]; Acinetobacter baumannii) | MIC ([9]; Acinetobacter baumannii) | MBC (A. baumannii ATCC 19,606 [10]; [19]) | MIC (A. baumannii ATCC 19,606 [10]; [20]) | MBC ([11]; Acinetobacter baumannii) | MIC ([11]; Acinetobacter baumannii) | MBC ([12]; Acinetobacter baumannii) | MIC ([12]; Acinetobacter baumannii) | MBC ([13]; Acinetobacter baumannii) | MIC ([13]; Acinetobacter baumannii) | MBC ([14]; Acinetobacter baumannii) | MIC ([14]; Acinetobacter baumannii) | further results
1 | C[C@H]1COc2c(N3CCN(C)CC3)c(F)cc3c(=O)c(C(=O)O)cn1c23 [Levofloxacin] | R | R | I | R | R | R | R | S | 31.2 µg/mL (≈ 86.5 µM) | 31.2 µg/mL (≈ 86.5 µM) | ≤ 0.49 µg/mL | ≤ 0.49 µg/mL | 7.81 µg/mL (≈ 21.6 µM) | 3.91 µg/mL (≈ 10.8 µM) | 3.91 µg/mL (≈ 10.8 µM) | 3.91 µg/mL (≈ 10.8 µM) | 7.81 µg/mL (≈ 21.6 µM) | 7.81 µg/mL (≈ 21.6 µM) | 250 µg/mL (≈ 692 µM) | 125 µg/mL (≈ 346 µM) | MBC ([15]; Acinetobacter baumannii): 1.95 µg/mL (≈ 5.4 µM); MIC ([15]; Acinetobacter baumannii): ≤ 0.49 µg/mL
2 | C[C@@H](O)[C@H]1C(=O)N2C(C(=O)O)=C(S[C@@H]3CN[C@H](C(=O)N(C)C)C3)[C@H](C)[C@H]12 [Meropenem] | R | R | R | R | R | R | R | S | 125 µg/mL (≈ 326 µM) | 125 µg/mL (≈ 326 µM) | 0.98 µg/mL (≈ 2.56 µM) | 0.98 µg/mL (≈ 2.56 µM) | 250 µg/mL (≈ 652 µM) | 125 µg/mL (≈ 326 µM) | 62.5 µg/mL (≈ 163 µM) | 62.5 µg/mL (≈ 163 µM) | 125 µg/mL (≈ 326 µM) | 125 µg/mL (≈ 326 µM) | 125 µg/mL (≈ 326 µM) | 125 µg/mL (≈ 326 µM) | MIC (A. baumannii ATCC 19,606 [16]; Acinetobacter baumannii, ATCC19, 24 h, read-out: MIC after 20 passages): 15.6 µg/mL (≈ 40.8 µM); fold increase in MIC compared to the first passage (A. baumannii ATCC 19,606 [16]; after passage 20): 16 fold; fold increase of MIC (A. baumannii ATCC 19,606 [16]; day 4): 2 fold; fold increase of MIC (A. baumannii ATCC 19,606 [16]; day 6): 4 fold; fold increase of MIC (A. baumannii ATCC 19,606 [16]; day 11): eight; MBC ([15]; Acinetobacter baumannii): 15.6 µg/mL (≈ 40.8 µM); MIC ([15]; Acinetobacter baumannii): 0.98 µg/mL (≈ 2.56 µM)
3 | Colistin | S | S | S | S | S | S | S | S | – | – | – | – | – | – | – | – | – | – | – | – | MBC [17]: 0.98(0.98) µg/ml; MIC [17]: 0.98(0.98) µg/ml; MBC [18]: 1.95(1.95) µg/ml; MIC [18]: 1.95(1.95) µg/ml; MBC [9, 21]: 1.95(1.95) µg/ml; MIC [9, 21]: 1.95(1.95) µg/ml; MIC (A. baumannii ATCC 19,606 [10]; A. baumannii ATCC 19,606, broth microdilution (modified CLSI), MHB, 2–8 × 10^5 CFU/mL, 24 h, 37 °C, triplicate): 0.98(0.98) µg/ml; MBC (A. baumannii ATCC 19,606 [10]; A. baumannii ATCC 19,606, colony count from non-turbid MIC wells, triplicate): 0.98(0.98) µg/ml; MBC [11, 22]: 0.98(0.98) µg/ml; MIC [11, 22]: 0.98(0.98) µg/ml; MBC [12, 23]: 1.95(1.95) µg/ml; MIC [12, 23]: 1.95(1.95) µg/ml; MBC [13, 24]: 1.95(1.95) µg/ml; MIC [13, 24]: 1.95(1.95) µg/ml; MBC [14, 25]: 0.98(0.98) µg/ml; MIC [14, 25]: 0.98(0.98) µg/ml; MBC [15, 26]: 1.95(1.95) µg/ml; MIC [15, 26]: 1.95(1.95) µg/ml
